In the NIST ThermoML archive (doi:10.1021/je020215j):
± gives the expanded uncertainty stated by the source.

Conditions: Crystal

Nc1c[nH]c(=O)[nH]c1=O [2,4(1H,3H)-pyrimidinedione, 5-amino-]
Conditions | vapor or sublimation pressure [kPa]
433.11 K | 1.941e-05 ± 2e-06
433.16 K | 2.072e-05 ± 2.1e-06
436.7 K | 2.56e-05 ± 2.6e-06
438.65 K | 3.333e-05 ± 3.4e-06
440.48 K | 3.89e-05 ± 3.9e-06
442.32 K | 4.794e-05 ± 4.8e-06
444.14 K | 5.231e-05 ± 5.2e-06
445.07 K | 5.373e-05 ± 5.4e-06
445.96 K | 6.018e-05 ± 6e-06
445.97 K | 5.707e-05 ± 5.7e-06
447.76 K | 6.664e-05 ± 6.7e-06
453.1 K | 9.97e-05 ± 1e-05

O=[N+]([O-])c1cnc(O)nc1O [2,4-pyrimidinedione, 5-nitro-]
Conditions | vapor or sublimation pressure [kPa]
431.25 K | 7.18e-06 ± 7.4e-07
433.14 K | 8.41e-06 ± 8.6e-07
434.95 K | 9.75e-06 ± 1e-06
434.98 K | 1.014e-05 ± 1e-06
436.81 K | 1.154e-05 ± 1.2e-06
438.63 K | 1.3e-05 ± 1.3e-06
440.46 K | 1.62e-05 ± 1.6e-06
442.17 K | 2.096e-05 ± 2.1e-06
442.27 K | 1.978e-05 ± 2e-06
445.93 K | 2.924e-05 ± 2.9e-06
447.76 K | 3.338e-05 ± 3.4e-06
453.11 K | 6.104e-05 ± 6.1e-06

Cn1c(N)cc(=O)n(C)c1=O [6-amino-1,3-dimethyluracil]
Conditions | vapor or sublimation pressure [kPa]
401.59 K | 9.9e-06 ± 1e-06
407.21 K | 1.673e-05 ± 1.7e-06
409 K | 1.845e-05 ± 1.9e-06
409.99 K | 2.309e-05 ± 2.3e-06
410.8 K | 2.478e-05 ± 2.5e-06
412.67 K | 2.874e-05 ± 2.9e-06
412.82 K | 3.133e-05 ± 3.1e-06
415.86 K | 4.477e-05 ± 4.5e-06
416.43 K | 3.968e-05 ± 4e-06
418.41 K | 5.345e-05 ± 5.4e-06
420.22 K | 6.082e-05 ± 6.1e-06
425.66 K | 0.0001053 ± 1.1e-05

Cn1c(N)cc(=O)[nH]c1=O [6-amino-1-methyluracil]
Conditions | vapor or sublimation pressure [kPa]
456.84 K | 2.824e-05 ± 2.8e-06
458.65 K | 3.188e-05 ± 3.2e-06
459.55 K | 3.807e-05 ± 3.8e-06
462.22 K | 4.621e-05 ± 4.6e-06
463.15 K | 5.015e-05 ± 5e-06
464.07 K | 5.429e-05 ± 5.5e-06
466.07 K | 6.44e-05 ± 6.5e-06
466.1 K | 6.38e-05 ± 6.4e-06
467.87 K | 7.507e-05 ± 7.5e-06
468.75 K | 7.967e-05 ± 8e-06
469.67 K | 8.597e-05 ± 8.6e-06
470.56 K | 9.083e-05 ± 9.1e-06

Nc1cc(O)nc(O)n1 [6-aminouracil]
Conditions | vapor or sublimation pressure [kPa]
478.6 K | 1.394e-05 ± 1.4e-06
478.61 K | 1.375e-05 ± 1.4e-06
480.4 K | 1.661e-05 ± 1.7e-06
482.16 K | 1.922e-05 ± 1.9e-06
483.92 K | 2.132e-05 ± 2.2e-06
485.6 K | 2.413e-05 ± 2.4e-06
485.7 K | 2.415e-05 ± 2.4e-06
487.5 K | 2.821e-05 ± 2.8e-06
489.24 K | 3.158e-05 ± 3.2e-06
491 K | 3.515e-05 ± 3.5e-06
491.02 K | 3.534e-05 ± 3.5e-06
492.65 K | 4.176e-05 ± 4.2e-06
